The values that follow come from patent US20220289903A1, “POLYMER AND COMPOSITION FROM RENEWABLE SOURCE” (ÅBO AKADEMI UNIVERSITY, priority 2019, published 2022).

Data set [1] has as its system Murine breast cancer (4T1) cells. Description: In vivo study in tumor-bearing mice. Conditions: equivalent doxorubicin dose 7.5 mg/kg i.v. on alternate day, 4T1 tumor Balb/c mice. How it is done:
All animal experiments were done with the approval of Institutional Animal Ethical Committee (IAEC), National Institute of Immunology, New Delhi. Murine breast cancer (4T1) cells ([…]) in 200 μL of FBS were injected subcutaneously into the right flanks of 5-week-old female Balb/c mice. Mice were randomized into four groups (6 mice in each group) after they developed a tumor of ˜75 mm^3. […] Tumor measurements were made every alternate day using a digital caliper, and tumor volume was calculated using the formula L×B2/2 where L and B are the length and breadth of the tumor. Each mouse was weighed before dosing and weight loss with respect to dosing. The survival study was continued until the last mouse was found live in all the groups. […] FIG. 9B represents an example of the weight change (%) of Balb/c mice vs injection day when treated as above.

The test system of another data set is MDAMB-231 cells. Nature of the data set: WST-1 cell viability assay, cancer cells. Conditions: 25-150 μg/mL DOX, 24 hours and 72 hours. In general terms: Formazan colour is commonly taken as a measure of viable cells.

Regarding `COc1cccc2c1C(=O)c1c(O)c3c(c(O)c1C2=O)C[C@@](O)(C(=O)CO)C[C@@H]3O[C@H]1C[C@H](N)[C@H](O)[C@H](C)O1.Cl` [DOX, doxorubicin HCl], in data set [1], the “number of doses after which all animals of the group died” value is 4 doses. For the same compound, the “percentage proliferation (cytotoxicity)” value with MDAMB-231 cells is reported as “equally cytotoxic regardless the cell line used”.
